# Reference: PubChem BioAssay AID2305 (GlaxoSmithKline (GSK), 2010)
# Test system: P. falciparum 3D7 growth, pLDH absorbance
# Assay: P. falciparum 3D7 growth inhibition, dose response, strain 3D7 (AID 2305)
row,SMILES,IC50 [nM]
1,C[C@@H]1CN(c2cnn(C/C=C/c3ccc(NC(=O)c4ccc5nonc5c4)cc3)c(=O)c2Cl)C[C@H](C)N1,790
2,Cc1[nH]c(C)c(-c2csc3ccccc23)c(=O)c1Cl,1020
3,CCCCc1cc(NCC)nc(Nc2cccc(OC)c2)n1,920
4,Cc1cc(OCC(=O)Nc2ccc(-c3nc4ccccc4[nH]3)cc2)cc(C)c1Cl,740
5,CC(C)CCCC(C)NC[C@@H](O)[C@H](Cc1ccccc1)NC(=O)c1cc(N2CCCC2=O)cc(N(c2ccccc2)S(C)(=O)=O)c1 (stereo partly specified),60
6,CCCc1cc(N2CCC(N3CCCC3)CC2)nc(Nc2ccc(Cl)cc2)n1,760
7,CCN(CCCN1CCCCC1)c1cc(C)nc(Nc2cccc(OC(F)(F)F)c2)n1,230
8,COc1cc(OC)c2c(c1Cl)O[C@]1(C2=O)C(=O)C(Cc2ccccc2)(Cc2ccccc2)C(=O)C[C@H]1C,970
9,Cc1cccc2[nH]c(-c3ccc(-c4ccc(C(=O)NCCc5cn(C)cn5)cc4)s3)nc12,960
10,COc1ccc(C(=O)[C@H]2C[C@@H]2CN2CC=C(c3c[nH]c4cccc(Br)c34)CC2)cc1,930
11,O=C(Nc1ccc2ccccc2c1)N(CCCn1ccnc1)Cc1csc(-c2ccc(CNCc3ccccc3)cc2)n1,740
12,COc1ccc(CNC2CCN(C)CC2)cc1-c1ccc(S(=O)(=O)NCc2ccccc2)c(C)c1,990
13,O=S(=O)(NCCN1CCCC1)c1ccc(-c2ccc(CNCc3ccc(F)cc3)cc2)cc1F,1280
14,Cc1ccc(CNC(=O)[C@H](CC(C)C)Nc2cc(C)nc(Nc3ccccc3)n2)cc1,1770
15,O=C1COc2ccccc2N1CCN1CCC(NCc2ccc(-c3cccs3)cc2)CC1,1430
16,Cc1cc(NCCc2ccc(O)cc2)nc(NCC(c2ccccc2)c2ccccc2)n1,320
17,O=C(/C=C/c1ccc(Cl)cc1)NCCCCCN1CCCN(C(=O)Nc2cccc(Cl)c2)CC1,1000
18,COc1cc2nc(N3CCC(CNC(=O)c4ccc(-c5cccc(C#N)c5)cc4)CC3)nc(N)c2cc1OC,140
19,CN1CCN(c2ccnc3ccc(NC(=O)Cc4ccc5ccccc5c4)cc23)CC1,760
20,O=C(NCC1CC1)C1Cc2c([nH]c3ccc(Br)cc23)C2(CCN(CCc3ccccc3)CC2)N1 (stereo unspecified),910
21,COc1ccc(CNc2nccc3ccc(-c4ccc(N)nc4)cc23)cc1,980
22,CC(C)CCNCC(O)Cn1c2ccc(Cl)cc2c2cc(Cl)ccc21 (stereo unspecified),450
23,COCCNCc1cccc(-c2ccc3c(Nc4ccc(F)cc4Cl)ccnc3c2)c1,680
24,CC(CN1CCN(C)CC1)C(=O)Nc1ccc(-c2ccc(-c3nc4ccccc4[nH]3)cc2)cc1 (stereo unspecified),950

row,SMILES,IC50 [nM]
1,CCOc1ccc(C(=O)N2CCOC(CCN3CCC(c4ccccc4)CC3)(c3ccc(Cl)c(Cl)c3)C2)cc1 (stereo unspecified),850
2,O=C(Nc1ccc(OC2CCN(Cc3ccccc3)C2)c(Cl)c1)c1ccc(F)cc1 (stereo unspecified),790
3,COc1cccc(CN2CCCN(Cc3cccc(NC(=O)c4ccc(-c5ccccc5)cc4)c3)CC2)c1,240
4,COc1cc2nccc(Nc3ccc4c(cnn4Cc4cccc(F)c4)c3)c2cc1OC,240
5,Clc1ccc(-c2ncc(-c3ccncc3)[nH]2)cc1Cl,1060
6,CCN(CC)CCN(Cc1ccc(-c2ccc(C(F)(F)F)cc2)cc1)C(=O)Cn1c(CCc2cc(F)ccc2F)nc(=O)c2ccccc21,830
7,COc1cc(C=CC(=O)NC2CCC(CN3CCC(c4c[nH]c5ccccc45)CC3)CC2)cc(OC)c1 (stereo unspecified),810
8,CCCC(C)c1cnc2nc(N)nc(N)c2c1C (stereo unspecified),30
9,COc1ccc(CCN(C)CCc2ccc(NC(=O)c3cccc4c(=O)c5ccccc5sc34)cc2)cc1,860
10,COc1ccc(-c2nc(NC(=O)Cc3coc4cc(OC)ccc34)sc2C)cc1,610
11,CCCCOc1ccc(N2C(N)=NC(N)=NC2(C)C)cc1,210
12,CCCCN(CCCC)CCNC(=O)c1cccc(NC(=O)N2CCc3cc(SC)c(C(F)(F)F)cc32)c1,810
13,Cc1cnc(NCC2CCCCC2)nc1N[C@@H](CC(C)C)C(=O)Nc1ccccc1,870
14,Cc1cc(NC(=O)c2coc3cc(F)c(N4C[C@@H](C)N(C)[C@@H](C)C4)cc23)ccc1-n1ccnc1,840
15,Cn1cncc1C(=O)NC1CCN(c2ccnc(Nc3ccc(F)cc3)n2)C1 (stereo unspecified),830
16,COc1ccc2nccc([C@@H](O)CN3CCC(NCCOc4cccc(F)c4F)CC3)c2c1,240
17,CS(=O)(=O)CCNCc1nc(-c2ccc3c(=O)[nH]cnc3c2)cs1,1010
18,COc1ccc(CCN(C)CCCOc2ccc(NC(=O)c3cccc4c(=O)c5ccccc5[nH]c34)cc2)cc1OC,910
19,CCCNCc1ccc(-c2ccc(CN(C(=O)c3nn(-c4ccccc4)nc3C)C(C)CN(C)C)cc2)nc1 (stereo unspecified),920
20,COc1c(C2CCN(CCN3CCC(CNC(=O)c4ccc(-c5ccc(C#N)cc5)cc4)CC3)CC2)ccc2c1CCCC2,460
21,O=C(Nc1ccccc1)N(Cc1ccc(-c2ccc(CNC3CCCC3)cc2)cc1)C1CCN(Cc2ccccc2)CC1,410
22,Cc1cc(N2CCC(N(C)C)C2)nc(Nc2ccc(Cl)cc2)n1 (stereo unspecified),520
23,COc1ccc2c(CNCCCCCCNCc3c(OC)ccc4cc(OC)ccc34)c(OC)ccc2c1,560
24,COc1cc(C=NNc2cc(C)nc3ccccc23)cc(OC)c1OC,730

row,SMILES,IC50 [nM]
1,Cc1ccccc1C1CCN(C2CCC(NC(=O)/C=C/c3cc(C(F)(F)F)ccc3F)CC2)CC1 (stereo unspecified),840
2,CCCCCCn1ccc2c3c(N)nc(N)nc3ccc21,150
3,CS(=O)(=O)N1CC2(CCN(CCC(NC(=S)Nc3ccccc3)c3ccc(Cl)c(Cl)c3)CC2)c2ccccc21 (stereo unspecified),830
4,COc1cccc(CN2CCC3(CC2)CN(C(=O)Nc2ccc(Cl)c(Cl)c2)C3)c1,750
5,COc1ccc(N2CCN(C(CNC(=O)C3CCCCC3)c3ccc4c(c3)OCO4)CC2)cc1 (stereo unspecified),570
6,CC(C)=CCc1c(-c2ccc(O)cc2O)oc2c3c(cc(O)c2c1=O)OC(C)(C)C=C3,980
7,COC(C(=O)OCCC1CCCN1C)(c1ccccc1)C1CCCCC1 (stereo unspecified),710
8,Cc1ccccc1C1CCN(C2CCC(NC(=O)/C=C/c3ccc(C#N)cc3)CC2)CC1 (stereo unspecified),1170
9,O=C(Nc1ccc2c(c1)CCN2C1CCN(Cc2ccc(F)cc2Cl)C1)c1ccco1 (stereo unspecified),470
10,COc1ccccc1NC(=O)Nc1ccc(-c2cccc(-c3nc4ccccc4[nH]3)c2)cc1,640
11,Cc1cc(N2CCN(C)CC2)nc2ccc(NC(=O)Cc3cccc(C(F)(F)F)c3)cc12,740
12,COC(=O)c1cccc(CNCc2cccc(-c3cccc(-c4nc5ccc(C(F)(F)F)cc5[nH]4)c3)c2)c1,170
13,COc1ccc(S(=O)(=O)Nc2ccc(C(=O)NCc3ccccc3C(F)(F)F)cc2)cc1N1CCN(CC2CC2)CC1,1150
14,Nc1ccc(-c2csc(Nc3ccncc3)n2)cc1,940
15,COc1cc(NC(=O)/C=C/c2cc3ccccc3n2C)ccc1OCCN(C(C)C)C(C)C,390
16,CC(=O)c1sc(NC(=O)Nc2ccc(C)cc2C)nc1C,910
17,Cc1noc(C)c1-c1ccc2c(Nc3ccc([N+](=O)[O-])cc3)c(C(N)=O)cnc2c1,690
18,CO/C(=C\C=C\c1cc2cc(Cl)c(Cl)cc2[nH]1)C(=O)NCCCN1CCN(c2cccc(OC)c2)CC1,840
19,CN(CCCN(C)c1cc(NC(=O)c2cccc(F)c2)ccn1)Cc1cccc(O)c1,1920
20,Cc1cc(-c2ccc3c(c2)CCN(CCC2CCC(NC(=O)/C=C/c4ccccc4F)CC2)CC3)on1 (stereo unspecified),810
21,Cc1ccc(O)cc1Nc1ccnc2cc(-c3ccncc3)ccc12,720
22,Cc1cccc2[nH]c(-c3ccc(-c4cccc(CN5CCN(CC6CCCN(C)C6)CC5)c4)s3)nc12 (stereo unspecified),120
23,COc1ccc(CNc2nccc3ccc(-c4ccc5nccn5c4)cc23)cc1,880
24,NC(=O)c1cccc(Nc2nccc(Nc3ccc(Oc4cccc(Cl)c4)c(Cl)c3)n2)c1,1280

row,SMILES,IC50 [nM]
1,CC(C)CNCc1cccc(-c2cccc(CN(CCN(C)C)C(=O)Nc3ccccc3)c2)c1,800
2,CCN(CC)CCN(Cc1ccc(-c2ccc(Cl)cc2)cc1)C(=O)Cn1cc(CN(C)C)c(=O)nc1SCc1ccc(F)cc1,750
3,O=C(NCCCCN1CCC(O)(c2ccc3c(c2)OCO3)CC1)c1ccc(NC(=O)c2ccc(Cl)cc2)cc1,1180
4,c1ccc(CCNc2ccnc(Nc3ccc4n[nH]nc4c3)n2)cc1,860
5,COc1ccc2nccc([C@@H](O)CN3CCC(NCc4cc5ccccc5[nH]c4=O)CC3)c2c1,180
6,COc1ccc2cc(-c3nc(-c4c(Cl)cccc4Cl)[nH]c3-c3ccnc(NCCCN4CCN(C)CC4)c3)ccc2c1,710
7,Cc1cc2nc(-c3ccc(/C=C/C(=O)NC4CCN(Cc5ccccc5)CC4)cc3)[nH]c2cc1C,590
8,CCn1cc(-c2cc(C(=O)Nc3ccc(OC)cc3C)c3ccccc3n2)c(C)n1,980
9,CCOc1ccc(-c2nonc2NC(=O)c2ccc(Cl)cc2)cc1OCC,990
10,Cc1cc(Nc2ccc(C)c(Cl)c2)n2nc(C(F)(F)F)nc2n1,20
11,Cc1ccc(C(NC(=O)c2ccccc2)c2ccc3cccnc3c2O)cc1 (stereo unspecified),960
12,Cc1cccc2[nH]c(-c3cccc(-c4ccc(NC(=O)Cc5cnc[nH]5)cc4)c3)nc12,690
13,CCCc1cc(N2CCC(N(CC)CC)C2)nc(Nc2ccc(OC)cc2)n1 (stereo unspecified),170
14,CCOC(=O)c1c[nH]c2c(sc3cc(OC)ccc32)c1=O,390
15,O=C(/C=C/c1ccc(Cl)c(Cl)c1)NCCCCCN1CCC(NC(=O)Nc2ccc(OC(F)F)cc2)CC1,750
16,O=c1cc(NCCCNCc2cc3c(Cl)cc(Cl)cc3[nH]2)[nH]c2ccccc12,860
17,COc1ccc(C(=O)NCC(C)(C)c2nc(-c3ccc(Cl)c(O)c3)c(-c3ccncc3)[nH]2)cc1OCCN(C(C)C)C(C)C,640
18,CS(=O)(=O)c1ccc(CCNCc2ccc(-c3ccc(CN(C(=O)c4ccco4)C4CCN(Cc5ccccc5)CC4)cc3)nc2)cc1,880
19,O=C(CCc1cccc(O)c1)NCC(NCCCNc1cc(=O)c2ccccc2[nH]1)c1cc(Br)cc(Br)c1 (stereo unspecified),1170
20,COC(=O)c1cc(NC(=O)Nc2ccc(Cn3ncc(N4CCCNCC4)c(Cl)c3=O)cc2)cc(C(=O)OC)c1,710
21,CNCc1ccc(CN(C)c2nc(N)c3cc(OC)c(OC)cc3n2)cc1,1030
22,Fc1cccc(Nc2nc(NCc3ccc(Cl)c(Cl)c3)nc(Nc3cccc(F)c3)n2)c1,750
23,Cc1cnc(-c2cccc(C(=O)NC3CCC(CCN4CCc5ccc(C#N)cc5CC4)CC3)c2)[nH]1 (stereo unspecified),300
24,CCCCCCOc1ccc2ccccc2c1CNCCCCCCNCc1c(OCCCCCC)ccc2ccccc12,1060
